Data: patent EP4592286A1, “MACROCYCLIC NITROGEN-CONTAINING CROWN ETHER COMPOUND AND USE THEREOF AS PROTEIN KINASE INHIBITOR” (Artivila Biopharma, priority 2022, dated 2024)

Key:
Type in all cases: biochemical
TYK2 = TYK2 (Homo sapiens, UniProt P29597); assay: experiment of inhibiting kinase activity, TYK2; details: read-out: inhibition rate TYK2; for inhibition at 0.01 µM: at 10 nM; for inhibition at 0.1 µM: at 100 nM
Description: The inhibition rates of tested compounds on JAK1, JAK2, JAK3, TYK2, CDK7, CDK9, EGFR (T790M) and LRRK2 kinases were measured. The test concentrations of the compounds were 10 nM and 100 nM, and the detection was performed by replicate wells. Alternatively, compounds were 3-fold serial diluted from 10 µM for 10 concentrations in replicate wells.

JAK3 = molecular target: T1, JAK3 (Homo sapiens, UniProt P52333); assay: experiment of inhibiting kinase activity (Caliper mobility shift assay), JAK3; details: for inhibition at 0.01 µM: at 10 nM; for inhibition at 0.01 µM / inhibition at 0.1 µM: read-out: inhibition rate JAK3; for inhibition at 0.1 µM: at 100 nM
T1 sequence (P52333 1-1124): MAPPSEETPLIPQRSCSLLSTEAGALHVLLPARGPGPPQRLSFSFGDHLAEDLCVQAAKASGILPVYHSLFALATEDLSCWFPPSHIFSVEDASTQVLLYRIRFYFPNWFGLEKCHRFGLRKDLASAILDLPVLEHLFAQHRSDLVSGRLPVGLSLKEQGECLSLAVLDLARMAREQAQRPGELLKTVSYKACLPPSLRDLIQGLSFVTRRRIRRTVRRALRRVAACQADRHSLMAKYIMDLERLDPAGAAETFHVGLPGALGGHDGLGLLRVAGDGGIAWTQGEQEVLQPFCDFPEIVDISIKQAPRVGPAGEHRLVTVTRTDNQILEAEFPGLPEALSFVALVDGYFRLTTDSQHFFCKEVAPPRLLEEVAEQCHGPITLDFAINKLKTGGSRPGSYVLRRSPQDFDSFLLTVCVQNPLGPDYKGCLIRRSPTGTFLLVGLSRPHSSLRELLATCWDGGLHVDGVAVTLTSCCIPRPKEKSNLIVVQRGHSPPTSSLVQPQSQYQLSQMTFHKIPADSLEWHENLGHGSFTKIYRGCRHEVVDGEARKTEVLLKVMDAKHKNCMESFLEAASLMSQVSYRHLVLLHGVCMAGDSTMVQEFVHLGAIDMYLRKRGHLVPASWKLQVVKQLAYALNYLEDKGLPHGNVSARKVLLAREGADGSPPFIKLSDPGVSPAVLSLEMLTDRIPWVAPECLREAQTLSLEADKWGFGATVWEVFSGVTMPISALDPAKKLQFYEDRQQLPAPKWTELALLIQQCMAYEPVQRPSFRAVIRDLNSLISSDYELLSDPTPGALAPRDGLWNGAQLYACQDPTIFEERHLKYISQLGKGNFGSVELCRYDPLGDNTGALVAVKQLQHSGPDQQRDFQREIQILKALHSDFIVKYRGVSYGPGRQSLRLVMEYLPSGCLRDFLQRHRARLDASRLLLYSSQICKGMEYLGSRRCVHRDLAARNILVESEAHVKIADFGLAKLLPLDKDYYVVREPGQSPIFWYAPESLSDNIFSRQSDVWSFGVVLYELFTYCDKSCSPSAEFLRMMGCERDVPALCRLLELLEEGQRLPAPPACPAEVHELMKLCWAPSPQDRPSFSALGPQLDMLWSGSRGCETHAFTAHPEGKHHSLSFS
Summary of the method: (§1)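 Kinase preincubated 10 min at room temperature with compound, then reaction started with ATP plus substrate; substrate conversion read by Caliper mobility shift after stop solution. Compounds tested at 10 and 100 nM or as 10-point 3-fold dilutions from 10 µM; IC50 from variable-slope fit of % inhibition.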

CDK9 = CDK9 (Homo sapiens, UniProt P50750); assay: experiment of inhibiting kinase activity (Caliper mobility shift assay), CDK9
Sequence of CDK9 (P50750 whole entry): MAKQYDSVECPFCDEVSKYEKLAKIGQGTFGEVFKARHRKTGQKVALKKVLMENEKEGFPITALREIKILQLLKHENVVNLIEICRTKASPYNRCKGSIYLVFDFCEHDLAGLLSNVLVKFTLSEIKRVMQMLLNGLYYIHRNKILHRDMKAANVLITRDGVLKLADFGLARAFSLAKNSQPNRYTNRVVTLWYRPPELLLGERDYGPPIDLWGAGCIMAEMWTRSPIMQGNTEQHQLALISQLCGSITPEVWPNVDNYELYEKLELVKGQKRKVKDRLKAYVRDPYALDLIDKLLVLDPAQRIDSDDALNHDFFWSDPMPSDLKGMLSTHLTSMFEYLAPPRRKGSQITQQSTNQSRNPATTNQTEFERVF
Sequence of CDK9 (O60563 whole entry partner): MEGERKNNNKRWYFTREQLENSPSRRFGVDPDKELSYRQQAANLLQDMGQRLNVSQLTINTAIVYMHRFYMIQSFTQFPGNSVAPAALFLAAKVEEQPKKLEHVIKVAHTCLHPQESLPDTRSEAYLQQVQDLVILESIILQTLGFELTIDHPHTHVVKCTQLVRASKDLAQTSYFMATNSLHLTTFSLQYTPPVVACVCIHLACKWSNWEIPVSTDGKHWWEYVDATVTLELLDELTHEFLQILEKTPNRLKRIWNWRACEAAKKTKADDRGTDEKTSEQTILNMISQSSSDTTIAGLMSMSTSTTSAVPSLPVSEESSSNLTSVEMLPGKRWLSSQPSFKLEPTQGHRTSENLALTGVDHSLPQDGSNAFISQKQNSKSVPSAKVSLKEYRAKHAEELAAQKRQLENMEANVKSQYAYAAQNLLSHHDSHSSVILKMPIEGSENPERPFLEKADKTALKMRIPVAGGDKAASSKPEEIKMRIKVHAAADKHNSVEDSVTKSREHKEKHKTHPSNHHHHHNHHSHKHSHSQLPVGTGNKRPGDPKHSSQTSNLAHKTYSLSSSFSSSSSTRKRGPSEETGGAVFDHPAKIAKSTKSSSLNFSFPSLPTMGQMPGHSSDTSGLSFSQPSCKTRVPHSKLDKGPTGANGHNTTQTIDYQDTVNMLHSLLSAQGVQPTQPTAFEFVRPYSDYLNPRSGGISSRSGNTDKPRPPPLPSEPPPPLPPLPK
Summary of the method: as §1

Sequence of TYK2 (P29597 whole entry): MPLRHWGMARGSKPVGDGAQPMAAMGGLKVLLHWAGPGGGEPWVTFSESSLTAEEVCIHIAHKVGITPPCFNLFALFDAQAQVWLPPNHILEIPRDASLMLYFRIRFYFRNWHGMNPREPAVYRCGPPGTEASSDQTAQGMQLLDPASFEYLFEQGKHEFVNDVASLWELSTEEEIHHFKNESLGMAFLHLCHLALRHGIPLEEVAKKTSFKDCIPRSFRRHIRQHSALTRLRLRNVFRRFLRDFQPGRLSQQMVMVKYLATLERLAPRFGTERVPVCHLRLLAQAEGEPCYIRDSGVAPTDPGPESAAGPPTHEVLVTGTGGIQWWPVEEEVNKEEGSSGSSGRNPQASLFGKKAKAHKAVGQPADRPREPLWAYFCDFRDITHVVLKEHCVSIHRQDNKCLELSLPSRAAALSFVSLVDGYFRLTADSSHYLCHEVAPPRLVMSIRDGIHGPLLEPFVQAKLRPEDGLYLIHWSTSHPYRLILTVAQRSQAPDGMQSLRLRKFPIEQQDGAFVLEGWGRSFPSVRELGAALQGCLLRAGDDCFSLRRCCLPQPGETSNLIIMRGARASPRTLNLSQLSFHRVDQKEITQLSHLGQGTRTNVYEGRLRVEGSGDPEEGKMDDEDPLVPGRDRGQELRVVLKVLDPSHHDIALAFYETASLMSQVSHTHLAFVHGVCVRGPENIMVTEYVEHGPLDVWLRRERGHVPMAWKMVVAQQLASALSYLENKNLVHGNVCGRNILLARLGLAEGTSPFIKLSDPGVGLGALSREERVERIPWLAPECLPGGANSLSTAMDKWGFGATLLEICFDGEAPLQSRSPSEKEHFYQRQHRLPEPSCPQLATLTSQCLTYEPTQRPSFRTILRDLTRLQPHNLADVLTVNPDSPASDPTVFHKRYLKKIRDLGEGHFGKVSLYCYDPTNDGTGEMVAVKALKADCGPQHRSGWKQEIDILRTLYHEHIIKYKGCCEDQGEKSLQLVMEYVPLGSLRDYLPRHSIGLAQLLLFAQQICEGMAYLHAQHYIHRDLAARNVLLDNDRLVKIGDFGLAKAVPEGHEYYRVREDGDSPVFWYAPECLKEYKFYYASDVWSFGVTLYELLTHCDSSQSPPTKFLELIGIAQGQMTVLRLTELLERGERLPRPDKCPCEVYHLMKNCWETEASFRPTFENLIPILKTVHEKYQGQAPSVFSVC

Row | inhibition at 0.01 µM (TYK2) | inhibition at 0.1 µM (TYK2) | inhibition at 0.01 µM (JAK3) | inhibition at 0.1 µM (JAK3) | inhibition at 0.01 µM (CDK9; at 10 nM, read-out: inhibition rate CDK9) | inhibition at 0.1 µM (CDK9; at 100 nM, read-out: inhibition rate CDK9) | IC50 (CDK9; kinase activity assay, Table 3) | IC50 (JAK3; kinase activity assay, Table 3) | SMILES
1 | > 80% | > 80% | > 80% | > 80% |  |  |  |  | CN1CCOCCOc2cc(Nc3nc(-c4cnn(C(CC#N)C5CCCC5)c4)c4cc[nH]c4n3)ccc2OCC1 (stereo not drawn) [Example 26, 3-cyclopentyl-3-(4-(2-((7-methyl-2,3,6,7,8,9-hexahydro-5H-benzo[b][1,4,7]trioxa[10]azacyclododecan-13-yl)amino)-7H-pyrrolo[2,3-d]pytimidin-4-yl)-1H-pyrazol-1-yl)propionitrile]
2 | 40 to 79% | > 80% | 40 to 79% | > 80% | 40 to 79% | > 80% | < 50 nM | < 50 nM | CN1CCOCCOc2cc(Nc3ncc(F)c(-c4ccc(C(=O)NCC#N)cc4)n3)ccc2OCC1 [Example 16, N-(cyanomethyl)-4-(5-fluoro-2-((7-methyl-2,3,6,7,8,9-hexahydro-5H-benzo[b][1,4,7]trioxa[10]azacyclododecan-13-yl)amino)pyrimidin-4-yl)benzamide]
